Read-outs that look alike come from different tables or passages of the source.
Experiments:
[1] = system: acutely dissociated and purified rat OPCs; test: Acute OL differentiation assay (MBP expression/cell, immunofluorescent image quantification); type: cell-based; settings: for activation at 0.08 µM / activation at 2 µM / activation at 10 µM / activation at 0.4 µM / EC50: Rattus norvegicus; for activation at 0.08 µM: test compound at 0.08 uM, read-out: 0.08 uM (% Quet); for EC50: average EC50 for induction of OL differentiation from independent biological replicates, eight concentrations; for hit in OL differentiation assay, MRF-TMC: ● = confirmed hit in this paper's assay
Procedure, shortened: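 Oligodendrocyte precursor cells were enriched from P6-P7 Sprague–Dawley rat brains by immunopanning (RAN-2 and GalC depletion, O4 selection), plated at 5000 cells/well in serum-free, mitogen-free differentiation media on PDL/laminin 96-well view plates, centrifuged at 200×g, and pre-incubated 1–2 h before test compounds were added in quadruplicate. On DIV4, cells were fixed, stained for MBP and DAPI, imaged automatically, and MBP expression per cell was quantified.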

expanded OPCs = test: cells; settings: for viability at 0.1 µM / viability at 1 µM / viability at 10 µM: Rattus norvegicus, 72 h
Procedure, shortened: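 Expanded OPCs seeded at 10,000 cells/well in differentiation media, then exposed to NCC library compounds at 10, 1 and 0.1 µM (quadruplicate, 0.1% DMSO) for three days. Viability read as alamarBlue fluorescence (560/590 nm) after 4 h at 37 °C; tunicamycin 5 ng/ml served as toxicity control.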

[2] = NCC library screen, sheet "All OLga data", relative to quetiapine
[3] = read-out: 0.1 µM (% DMSO), alamarBlue viability, NCC library compound at 0.1 µM, sheet "All Tox data"
[4] = read-out: 1 µM (% DMSO), alamarBlue viability, NCC library compound at 1 µM, sheet "All Tox data"
[5] = read-out: 10 µM (% DMSO), alamarBlue viability, NCC library compound at 10 µM, sheet "All Tox data"
[6] = alamarBlue viability of expanded OPCs, compound at 0.1 µM, relative to DMSO control
[7] = alamarBlue viability of expanded OPCs, compound at 1 µM, relative to DMSO control
[8] = alamarBlue viability of expanded OPCs, compound at 10 µM, relative to DMSO control
[9] = test compound at 2 uM, NCC library screen, sheet "All OLga data", relative to quetiapine, read-out: 2 uM (% Quet)
[10] = test compound at 10 uM, NCC library screen, sheet "All OLga data", relative to quetiapine, read-out: 10 uM (% Quet)
[11] = 2 uM test compound, relative to quetiapine, sheet "All OLga data", read-out: OL differentiation, 2 uM (% Quet)
[12] = 10 uM test compound, relative to quetiapine, sheet "All OLga data", read-out: OL differentiation, 10 uM (% Quet)
[13] = read-out: 0.1 µM (% DMSO), alamarBlue viability of expanded OPCs, compound at 0.1 µM, sheet All Tox data
[14] = read-out: 1 µM (% DMSO), alamarBlue viability of expanded OPCs, compound at 1 µM, sheet All Tox data
[15] = read-out: 10 µM (% DMSO), alamarBlue viability of expanded OPCs, compound at 10 µM, sheet All Tox data
[16] = test compound at 0.4 uM, NCC library screen, sheet "All OLga data", relative to quetiapine, read-out: 0.4 uM (% Quet)
[17] = 0.4 uM test compound, relative to quetiapine, sheet "All OLga data", read-out: OL differentiation, 0.4 uM (% Quet)

Q: How did the activation at 0.08 µM [1, 2] turn out when `COc1cc([C@@H]2c3cc4c(cc3[C@@H](O[C@@H]3O[C@@H]5CO[C@@H](C)O[C@H]5[C@H](O)[C@H]3O)[C@H]3COC(=O)[C@H]23)OCO4)cc(OC)c1O` [Etoposide] was run?
A: The activation at 0.08 µM was -42.3%.

Q: And the viability at 0.1 µM (expanded OPCs; [3])?
A: Its viability at 0.1 µM is 40.9%.

Q: And the viability at 1 µM (expanded OPCs; [4])?
A: The viability at 1 µM was 14%.

Q: What about the viability at 10 µM (expanded OPCs; [5]) of the same compound?
A: Its viability at 10 µM is 8.9%.

Q: Which activation at 2 µM ([1]; test compound at 2 uM, MBP expression relative to quetiapine, NCC library screen, sheet "All OLga data", read-out: 2 uM (% Quet)) does the source give for `NC(=O)N1c2ccccc2C=Cc2ccccc21` [Carbamazepine] here?
A: The activation at 2 µM was -5.2%.

Q: What about the activation at 10 µM ([1]; test compound at 10 uM, MBP expression relative to quetiapine, NCC library screen, sheet "All OLga data", read-out: 10 uM (% Quet)) of the same compound?
A: Its activation at 10 µM is -13.7%.

Q: What about the “0.1 µM (% DMSO)” value (expanded OPCs; [6]) of the same compound?
A: The value was 107.0 % DMSO.

Q: And the “1 µM (% DMSO)” value (expanded OPCs; [7])?
A: The value was 99.7 % DMSO.

Q: And the “10 µM (% DMSO)” value (expanded OPCs; [8])?
A: The value was 103.7 % DMSO.

Q: For `CCCN(CCC)S(=O)(=O)c1ccc(C(=O)O)cc1` [Probenecid], which activation at 2 µM [1, 9] is on record?
A: Its activation at 2 µM is 1.7%.

Q: And the activation at 10 µM [1, 10]?
A: Its activation at 10 µM is -6.4%.

Q: What about the viability at 0.1 µM (expanded OPCs; [3]) of the same compound?
A: The viability at 0.1 µM was 89.6%.

Q: What about the viability at 1 µM (expanded OPCs; [4]) of the same compound?
A: Its viability at 1 µM is 94.3%.

Q: And the viability at 10 µM (expanded OPCs; [5])?
A: Its viability at 10 µM is 91.5%.

Q: How did the activation at 2 µM [1, 11] turn out when `COc1cc(-c2ccc(=O)[nH]n2)ccc1OC(F)F` [Zardaverine] was run?
A: Its activation at 2 µM is 4.1%.

Q: And the activation at 10 µM [1, 12]?
A: The activation at 10 µM was -36.7%.

Q: What about the viability at 0.1 µM (expanded OPCs; [13]) of the same compound?
A: The viability at 0.1 µM was 86.5%.

Q: What about the viability at 1 µM (expanded OPCs; [14]) of the same compound?
A: The viability at 1 µM was 93.5%.

Q: What about the viability at 10 µM (expanded OPCs; [15]) of the same compound?
A: The viability at 10 µM was 67.4%.

Q: How did the activation at 0.08 µM [1, 2] turn out when `CC(C)/N=c1\cc2n(-c3ccc(Cl)cc3)c3ccccc3nc-2cc1Nc1ccc(Cl)cc1` [Clofazimine] was run?
A: Its activation at 0.08 µM is 0.25%.

Q: And the activation at 0.4 µM [1, 16]?
A: The activation at 0.4 µM was -57.8%.

Q: And the viability at 0.1 µM (expanded OPCs; [3])?
A: The viability at 0.1 µM was 89.9%.

Q: What about the viability at 1 µM (expanded OPCs; [4]) of the same compound?
A: The viability at 1 µM was 45.9%.

Q: And the viability at 10 µM (expanded OPCs; [5])?
A: Its viability at 10 µM is 19%.

Q: For `Cc1nnc(SCC2=C(C(=O)O)N3C(=O)[C@@H](NC(=O)Cn4cnnn4)[C@H]3SC2)s1` [Cefazolin], which activation at 2 µM [1, 9] is on record?
A: The activation at 2 µM was 6.4%.

Q: What about the activation at 10 µM [1, 10] of the same compound?
A: Its activation at 10 µM is 0.95%.

Q: What about the viability at 0.1 µM (expanded OPCs; [3]) of the same compound?
A: The viability at 0.1 µM was 95.1%.

Q: And the viability at 1 µM (expanded OPCs; [4])?
A: The viability at 1 µM was 92.5%.

Q: And the viability at 10 µM (expanded OPCs; [5])?
A: The viability at 10 µM was 96.9%.

Q: With `CCOC(=O)C1=C(C)NC(C)=C(C(=O)OCC)C1c1ccccc1/C=C/C(=O)OC(C)(C)C` [Lacidipine] as the compound, how does the activation at 0.08 µM [1, 2] read?
A: Its activation at 0.08 µM is -1.1%.

Q: And the activation at 0.4 µM [1, 16]?
A: The activation at 0.4 µM was -11.2%.

Q: And the viability at 0.1 µM (expanded OPCs; [3])?
A: The viability at 0.1 µM was 64.4%.

Q: And the viability at 1 µM (expanded OPCs; [4])?
A: Its viability at 1 µM is 55.3%.

Q: And the viability at 10 µM (expanded OPCs; [5])?
A: Its viability at 10 µM is 8.7%.

Q: How did the activation at 2 µM ([1]; read-out: 2 uM (% Quet)) turn out when `CN1CCC[C@H]1c1cccnc1` [Nicotine] was run?
A: The activation at 2 µM was 12.3%.

Q: What about the activation at 10 µM ([1]; read-out: 10 uM (% Quet)) of the same compound?
A: The activation at 10 µM was 10.9%.

Q: And the viability at 0.1 µM (expanded OPCs; read-out: 0.1 µM (% DMSO))?
A: The viability at 0.1 µM was 92.9%.

Q: And the viability at 1 µM (expanded OPCs; read-out: 1 µM (% DMSO))?
A: The viability at 1 µM was 89.4%.

Q: And the viability at 10 µM (expanded OPCs; read-out: 10 µM (% DMSO))?
A: The viability at 10 µM was 93.5%.

Q: Which activation at 0.4 µM [1, 17] does the source give for `CN1CCN(C2=Nc3ccccc3Oc3ccc(Cl)cc32)CC1` [Loxapine] here?
A: The activation at 0.4 µM was -5.9%.

Q: And the activation at 2 µM [1, 11]?
A: The activation at 2 µM was -18.5%.

Q: And the viability at 0.1 µM (expanded OPCs; [13])?
A: The viability at 0.1 µM was 85.7%.

Q: And the viability at 1 µM (expanded OPCs; [14])?
A: The viability at 1 µM was 71.4%.

Q: What about the viability at 10 µM (expanded OPCs; [15]) of the same compound?
A: Its viability at 10 µM is 29%.

Q: With `c1ccc(-c2ccc(C(c3ccccc3)n3ccnc3)cc2)cc1` (stereo not shown) [Bifonazole, reference compound] as the compound, how does the activation at 0.4 µM [1, 17] read?
A: Its activation at 0.4 µM is 67.3%.

Q: And the activation at 2 µM [1, 11]?
A: Its activation at 2 µM is 105%.

Q: And the EC50 [1]?
A: The EC50 was 1.7 µM.

Q: And the “hit in OL differentiation assay, MRF-TMC” value [1]?
A: Its value is “●”.

Q: And the viability at 0.1 µM (expanded OPCs; [3])?
A: Its viability at 0.1 µM is 121%.

Q: And the viability at 1 µM (expanded OPCs; [4])?
A: Its viability at 1 µM is 187%.

Q: What about the viability at 10 µM (expanded OPCs; [5]) of the same compound?
A: The viability at 10 µM was 11.9%.

Q: For `CC(C(O)c1ccc(O)cc1)N1CCC(Cc2ccccc2)CC1` (stereo not shown) [Ifenprodil, reference compound], which activation at 2 µM [1, 11] is on record?
A: Its activation at 2 µM is 162%.

Q: What about the activation at 10 µM [1, 12] of the same compound?
A: The activation at 10 µM was 154%.

Q: And the EC50 [1]?
A: The EC50 was 0.4 µM.

Q: And the “hit in OL differentiation assay, MRF-TMC” value [1]?
A: Its value is “●”.

Q: And the viability at 0.1 µM (expanded OPCs; [13])?
A: Its viability at 0.1 µM is 93%.

Q: What about the viability at 1 µM (expanded OPCs; [14]) of the same compound?
A: Its viability at 1 µM is 135%.

Q: What about the viability at 10 µM (expanded OPCs; [15]) of the same compound?
A: The viability at 10 µM was 103%.

Q: How did the activation at 2 µM ([1]; read-out: 2 uM (% Quet)) turn out when `CC(C)c1cccc(C(C)C)c1O` [Propofol] was run?
A: The activation at 2 µM was -0.9%.

Q: What about the activation at 10 µM ([1]; read-out: 10 uM (% Quet)) of the same compound?
A: The activation at 10 µM was 0.36%.

Q: And the “0.1 µM (% DMSO)” value (expanded OPCs; rat)?
A: The value was 93.1 % DMSO.

Q: What about the “1 µM (% DMSO)” value (expanded OPCs; rat) of the same compound?
A: Its value is 85.9 % DMSO.

Q: And the “10 µM (% DMSO)” value (expanded OPCs; rat)?
A: Its value is 87.2 % DMSO.

Q: Which results are given for `CN1CCN(C2=Nc3cc(F)ccc3Cc3ccccc32)CC1` [Fluperlapine]?
A: activation at 0.4 µM [1, 16]: -10.3%; activation at 2 µM [1, 9]: -16.2%; viability at 0.1 µM (expanded OPCs; [3]): 78.1%; viability at 1 µM (expanded OPCs; [4]): 64.8%; viability at 10 µM (expanded OPCs; [5]): 32.2%

Q: Which results are given for `N[C@@H](Cc1cc(I)c(Oc2ccc(O)c(I)c2)c(I)c1)C(=O)O` [Triiodothyronine]?
A: activation at 2 µM [1, 9]: -36.3%; activation at 10 µM [1, 10]: -37.8%; 0.1 µM (% DMSO) (expanded OPCs; [6]): 237.5 % DMSO; 1 µM (% DMSO) (expanded OPCs; [7]): 217.6 % DMSO; 10 µM (% DMSO) (expanded OPCs; [8]): 207.1 % DMSO

— paper PMC5011342, “A high throughput drug screening assay to identify compounds that promote oligodendrocyte differentiation using acutely dissociated and purified oligodendrocyte precursor cells” (BMC Research Notes, 2016)
